Key:
rat model of OCD [1] = assay: Observing Response Task (ORT), rat model of compulsive-like checking in OCD (sign-trackers = OCD model, goal-trackers = controls); format: in vivo
Description: OCD may be studied using animal models and such models may be used to evaluate compounds of the present invention. One model may be a rat model of compulsive-like checking behaviour described by Eagle et al., Behav. Brain Res, 1 May 2014; 264(100): 207-29. Briefly, rats are trained to work for palatable food which is unpredictably available for responding on one of two levers in an operant chamber. The rats can gain information about the location of the effective lever by making ‘observing responses’ on a third lever at the rear of the chamber. Predictably, responding on this lever is increased under conditions of uncertainty, as this adaptive checking increases the chance of food reward. However, some rats respond excessively on the observing lever and this can be disadvantageous or ‘non-functional’. This excessive checking behaviour is boosted by treatment with dopamine D2 receptor drugs such as quinpirole and also if there is a prior tendency in rats to over-respond to conditioning signals for food (‘sign-tracking’), associated with elevated dopamine activity in the nucleus accumbens. Rats who respond to the food itself are called goal-trackers. […] Moreover, in a human version of this test (i.e. involving essentially the same task for humans as for rodents), it has been shown that OCD patients check more than healthy control volunteers (Morein-Zamir et al., Q. J. Exp. Psychol. (Hove), 2018 October; 71(10): 2052-2069).
Male Lister-hooded rats (n=48, Charles River, UK) were group-housed in fours and maintained at approximately 95% free-feeding weight. Experiments were conducted during the dark phase of a reversed 12-hour light-dark cycle (lights off at 07:00). This research was conducted on UK Home Office Project Licence PA9FBFA9F and was regulated under the Animals (Scientific Procedures) Act 1986 Amendment Regulations 2012 following ethical review by the University of Cambridge Animal Welfare and Ethical Review Body.
The 48 male Lister-Hooded rats were trained on the Observing Response Task (ORT) and classified as sign-trackers […] or goal-trackers (n=24) following AutoShaping training, as described previously. Based on the research described above, the sign-tracker rats provide the OCD model and the goal-trackers are controls.
The ‘drug treatment’ data refer to behaviour under the influence of the specific dose (3 mg/kg or 10 mg/kg), 2 hours after an intraperitoneal injection. The ‘0 mg/kg’ data refer to an intraperitoneal injection of the 0.9% (w/v) physiological saline vehicle.
Rats were divided into groups to receive different doses of AZD-8529 in a counterbalanced order. […] “mg/kg” refers to a dose that was determined based on the body weight of the rat. For example, a rat weighing 0.5 kg receiving a dose of 3 mg/kg would receive a dose of 1.5 mg.
All statistical analyses were conducted using IBM SPSS Statistics v27. Data were analysed using repeated measures ANOVAs. Omnibus ANOVAs were first conducted to determine whether the order of drug dosing influenced the behavioural outcomes, and whether there were differences in baseline levels of responding. Planned ANOVAs assessing the drug administration sessions only were subsequently conducted.

rat model of OCD [2] = assay: as above; format: in vivo; settings: rats, 30 mg/kg single intraperitoneal dose

- increased responding on the active lever during the cue (discrimination with light on) (rat model of OCD [1]; 3 mg/kg i.p., full cohort, p=0.38): not seen
- number of rewards earned during the session (rat model of OCD [1]; 10 mg/kg i.p., full cohort, compared to vehicle and 3 mg/kg, p<0.001): reduced the numbers of reward earned
- increased responding on the active lever during the cue (discrimination with light on) (rat model of OCD [1]; 10 mg/kg i.p., full cohort, p=0.21): not seen
SMILES: Cc1cc(-c2nc(CN3CCNCC3)no2)cc2c1C(=O)N(Cc1ccc(OC(F)(F)F)cc1)C2 [AZD-8529, 7-methyl-5-(3-piperazin-1-ylmethyl-[1,2,4]oxadiazol-5-yl)-2-(4-trifluoromethoxybenzyl)-2,3-dihydroisoindol-1-one]
- number of rewards earned during the session (rat model of OCD [1]; 3 mg/kg i.p. vs vehicle, full cohort, p=0.91): equivalent numbers of rewards were earned
- dysfunctional checking (eOLPs) (rat model of OCD [1]; OCD model (sign-trackers), 3 mg/kg i.p. vs 0 mg/kg control, p<0.002): reduction in dysfunctional checking
- dysfunctional checking (eOLPs) (rat model of OCD [1]; OCD model (sign-trackers), 10 mg/kg i.p. vs 0 mg/kg control, p<0.002, not lower than 3 mg/kg (p=0.94)): reduction in dysfunctional checking
- functional checking (Observing Lever Presses, OLPs) (rat model of OCD [1]; OCD model (sign-trackers), 3 and 10 mg/kg i.p., 2 hours after injection, p<0.001): reduced functional checking in a dose-dependent manner
- functional checking (Observing Lever Presses, OLPs) (rat model of OCD [1]; controls (goal-trackers), 3 and 10 mg/kg i.p., 2 hours after injection, p=0.008): reduced functional checking in a dose-dependent manner
- dysfunctional checking (eOLPs) (rat model of OCD [1]; controls (goal-trackers), 3 and 10 mg/kg i.p., all p's>0.079): no overall reduction in dysfunctional checking
- functional checking (Observing Lever Presses, OLPs) (rat model of OCD [1]; full cohort (sign-trackers plus goal-trackers), 3 and 10 mg/kg i.p. vs 0 mg/kg, 2 hours after injection, mesylate salt, p<0.001): reduced functional checking in a dose-dependent manner
- dysfunctional checking (Extra Observing Lever Presses, eOLPs) (rat model of OCD [1]; full cohort, 3 and 10 mg/kg i.p. vs 0 mg/kg, 2 hours after injection, p<0.001): reduced dysfunctional checking in a dose-dependent manner
- adverse effects (rat model of OCD [2]): unexpected adverse gastrointestinal effects

From US20240050427A1, “TREATMENTS FOR OBSESSIVE COMPULSIVE DISORDER” (SIRGARTAN HOLDINGS LTD, priority 2022, published 2024)
